Measured values from patent US20220168430A1, “THERAPEUTIC METHODS FOR TREATING HEPATITIS B” (priority 2019, published 2022).
Several values for one entry are separate records, joined by “and”; a condition that tells them apart may be missing. Equal entries are not always repeated.

Assays:
HBV DNA [1] = test: HBV DNA by branched DNA assay in HepG2.2.15 cells, two-compound combinations (Examples 13-14); type: cell-based, HBV; HepG2.2.15 (human hepatoblastoma); details: for MacSynergy Volume Calculations, 99.99% confidence interval (Bonferroni Adj. 96%) / Average percent inhibition versus negative control: Cmpd 2 μM: 0.01, 0.0032, 0.001, 0.0003, 0.0001, 0; for EC50: Hepatitis B virus; for Average percent inhibition versus negative control: n = 4; for Additive percent inhibition versus negative control: Compound (2) μM: 0.01, 0.0032, 0.001, 0.0003, 0.0001, 0
Experimental: In vitro combination studies were conducted using the method of Prichard and Shipman (Prichard M N, and Shipman C Jr., Antiviral Research, 1990, 14(4-5), 181-205; and Prichard M N, et. al., MacSynergy II). The HepG2.2.15 cell culture system is a cell line derived from human hepatoblastoma HepG2 cells, which have been stably transfected with the adw2-subtype HBV genome as previously explained in Sells et al. (Proc. Natl. Acad. Sci. U. S. A, 1987. Vol 84:1005-1009). HepG2.2.15 cells secrete Dane-like viral particles, produce HBV DNA, and produce the viral proteins, HBeAg and HBsAg.
Although inhibition of HBV DNA, RNA and proteins can be determined in the presence of these inhibitors, we used the branched DNA assay due to its ability to quantitatively measure the level HBV DNA.
Detection of HBV DNA. The branched DNA assay (bDNA) was used to determine the effect of compound combinations on HBV DNA. HepG2.2.15 (10,000 cells/well) were cultured in DMEM medium plus supplements as described above. The next day, the cells were replenished with fresh medium followed by the addition of Inhibitor A and B, both were dissolved in 100% DMSO. The microtiter cell plates were incubated for a total duration of 6 days at 37° C. without replenishing media or compound. The serial dilutions spanned concentration ranges respective to the EC50 value of each compound. In addition to combination testing of the compounds, both inhibitors A and B were also tested singly.
The level of bDNA present in the inhibitor-treated supernatant wells was measured using a Quantigene 2.0 bDNA assay kit (Affymetrix, Santa Clara, Calif.) with HBV specific custom probe set (genotype D ayw; DF-10739) and manufacturer's instructions after performing a proteinase K digestion in lysis. The plates were read using a Victor luminescence plate reader (PerkinElmer Model 1420 Multilabel counter) and the RLU data generated from each well was calculated as inhibition of the untreated control wells. The data was analyzed using the interpretive guidelines established by Prichard and Shipman combination model using the MacSynergy II program (Prichard M N, Shipman C Jr. Antiviral Research, 1990. Vol 14(4-5):181-205; Prichard M N, Aseltine KR, and Shipman, C. MacSynergy II. University of Michigan 1992) to determine whether the combinations were synergistic, additive or antagonistic using the interpretive guidelines established by Prichard and Shipman as follows: synergy volumes <25 μM2% (log volume <2) at 95% CI=probably insignificant; 25-50 (log volume >2 and <5)=minor but significant 50-100 (log volume >5 and <9)=moderate, may be important in vivo; Over 100 (log volume >9)=strong synergy, probably important in vivo; volumes approaching 1000 (log volume >90)=unusually high, check data. The RLU data from the single compound treated cells were analyzed using XL-Fit module in Microsoft Excel to determine EC50 values using a 4-parameter curve fitting algorithm.

HBV DNA [2] = test: HBV DNA in culture supernatants of HBV-infected PHH by qPCR (Examples 15-17); type: cell-based, HBV genotype D; primary human hepatocytes; details: HBV DNA
Experimental: The day PHH seeding date was defined as day 0.
The PHH were infected with 400 HBV GE/cell of D type HBV on day 1.
The test articles were further diluted with the culture medium to the final test concentrations.
All the test articles were further diluted 100 times with the culture medium. The final concentration of DMSO in the culture medium was […].
Four two-way combinations were performed on a 5×5 matrix, in triplicate plates. Transfection reagent was present in all wells.
DNA in the culture supernatants harvested on days 8 was isolated with QIAamp 96 DNA Blood Kit (Qiagen-51162). For each sample, 100 μl of each culture supernatant was used to extract DNA. The DNA was eluted with 180 μl of AE. HBV DNA in the culture supernatants was quantified by quatitative PCR using well-established and commonly used procedures. Percent inhibition of HBV DNA was calculated with the formula below:
% Inh. HBV DNA=[1−value of sample/AVG. value of Medium control]×100.
Results of double combination studies were analyzed using MacSynergy II software (Prichard and Shipman, 1992).

HBV DNA [3] = test: as above; type: cell-based, HBV genotype D; primary human hepatocytes; details: Hepatitis B virus, determined in an earlier separate experiment
HBsAg = HBsAg in culture supernatants of HBV-infected PHH by ELISA (Examples 15-17); details: for AVERAGE % INHIBITION: HBsAg
Experimental: All the test articles were further diluted 100 times with the culture medium. The final concentration of DMSO in the culture medium was 2%.
HBsAg in the culture supernatants harvested on days 8 was measured using the HBsAg/ELISA kit (Autobio) according to the manual. The samples were diluted 4-fold with PBS to get the signal in the range of the standard curve. Percent inhibition of HBsAg was calculated with the following formula:
% Inh. HBsAg=[1−HBsAg quantity of sample/HBV quantity of DMSO control]×100

COCCCOc1cc2c(nc1OC)-c1cc(=O)c(C(=O)O)cn1[C@H](C(C)C)C2 [Compound 2]
MacSynergy Volume Calculations, 99.99% confidence interval (Bonferroni Adj. 96%) (HBV DNA [1]; ETV 0 μM): 0.00
EC50 (HBV DNA [1]; HepG2.2.15, HepG2.2.15, bDNA quantitation, study with ETV as Inhibitor A, read-out: Inhibitor B EC50): 0.9 nM
EC50 (HBV DNA [1]; HepG2.2.15, HepG2.2.15, bDNA quantitation, study with TAF as Inhibitor A, read-out: Inhibitor B EC50): 0.6 nM
MacSynergy Volume Calculations, 99.99% confidence interval (Bonferroni Adj. 96%) (HBV DNA [1]; TAF 0 μM): 0

CC(C)OC(=O)[C@H](C)N[P@](=O)(CO[C@H](C)Cn1cnc2c(N)ncnc21)Oc1ccccc1 [TAF, tenofovir alafenamide]
EC50 (HBV DNA [1]; HepG2.2.15, read-out: Inhibitor A EC50): 54 nM
MacSynergy Volume Calculations, 99.99% confidence interval (Bonferroni Adj. 96%) (HBV DNA [1]; TAF 0.0002 μM): 0
Average percent inhibition versus negative control (HBV DNA [1]; TAF 0.0002 μM): 8.88%
Additive percent inhibition versus negative control (HBV DNA [1]; TAF 0.0002 μM): 8.88%
MacSynergy Volume Calculations, 99.99% confidence interval (Bonferroni Adj. 96%) (HBV DNA [1]; TAF 0.0006 μM): 0
Average percent inhibition versus negative control (HBV DNA [1]; TAF 0.0006 μM): 12.91%
Additive percent inhibition versus negative control (HBV DNA [1]; TAF 0.0006 μM): 12.91%
MacSynergy Volume Calculations, 99.99% confidence interval (Bonferroni Adj. 96%) (HBV DNA [1]; TAF 0.0020 μM): 0
Average percent inhibition versus negative control (HBV DNA [1]; TAF 0.0020 μM): 14.28%
Additive percent inhibition versus negative control (HBV DNA [1]; TAF 0.0020 μM): 14.28%
MacSynergy Volume Calculations, 99.99% confidence interval (Bonferroni Adj. 96%) (HBV DNA [1]; TAF 0.0064 μM): 0
Average percent inhibition versus negative control (HBV DNA [1]; TAF 0.0064 μM): 19.87%
Additive percent inhibition versus negative control (HBV DNA [1]; TAF 0.0064 μM): 19.87%
MacSynergy Volume Calculations, 99.99% confidence interval (Bonferroni Adj. 96%) (HBV DNA [1]; TAF 0.0201 μM): 0
Average percent inhibition versus negative control (HBV DNA [1]; TAF 0.0201 μM): 25.36%
Additive percent inhibition versus negative control (HBV DNA [1]; TAF 0.0201 μM): 25.36%
MacSynergy Volume Calculations, 99.99% confidence interval (Bonferroni Adj. 96%) (HBV DNA [1]; TAF 0.0634 μM): 0
Average percent inhibition versus negative control (HBV DNA [1]; TAF 0.0634 μM): 42.96%
Additive percent inhibition versus negative control (HBV DNA [1]; TAF 0.0634 μM): 42.96%
MacSynergy Volume Calculations, 99.99% confidence interval (Bonferroni Adj. 96%) (HBV DNA [1]; TAF 0.2002 μM): 0
Average percent inhibition versus negative control (HBV DNA [1]; TAF 0.2002 μM): 62.7%
Additive percent inhibition versus negative control (HBV DNA [1]; TAF 0.2002 μM): 62.7%
MacSynergy Volume Calculations, 99.99% confidence interval (Bonferroni Adj. 96%) (HBV DNA [1]; TAF 0.6329 μM): 0
Average percent inhibition versus negative control (HBV DNA [1]; TAF 0.6329 μM): 76.45%
Additive percent inhibition versus negative control (HBV DNA [1]; TAF 0.6329 μM): 76.45%
MacSynergy Volume Calculations, 99.99% confidence interval (Bonferroni Adj. 96%) (HBV DNA [1]; TAF 2.0 μM): 0
Average percent inhibition versus negative control (HBV DNA [1]; TAF 2.0 μM): 87.21%
Additive percent inhibition versus negative control (HBV DNA [1]; TAF 2.0 μM): 87.21%

CC(C)OC(=O)OCOP(=O)(CO[C@H](C)Cn1cnc2c(N)ncnc21)OCOC(=O)OC(C)C.O=C(O)/C=C/C(=O)O [TDF, tenofovir disoproxil fumarate, reference compound]
AVERAGE % INHIBITION (HBV DNA [2]; TDF 0.12 nM alone): 22.22%
AVERAGE % INHIBITION (HBV DNA [2]; TDF 10.0 nM alone): 92.76%
inhibition at 0.00012 µM (HBV DNA [2]; Hepatitis B virus, TDF 0.12 nM alone): 36.1%
inhibition at 0.00037 µM (HBV DNA [2]; Hepatitis B virus, TDF 0.37 nM alone): 44.6%
inhibition at 0.01 µM (HBV DNA [2]; Hepatitis B virus, TDF 10.0 nM alone): 92.5%
EC50 (HBV DNA [3]): 0.42 nM
AVERAGE % INHIBITION (HBsAg; TDF 0.12 nM alone): −1.47% and −10.84%
AVERAGE % INHIBITION (HBsAg; TDF 0.37 nM alone): −1.3% and −9.3%
EC50 (HBsAg; Hepatitis B virus): > 10 nM
